Reference: US9386938B2, “Methods for collagen imaging” (Collagen Medical, LLC, priority 2005, dated 2016)
“And” between values parts separate entries of the source, which are not always exact repeats. Equal entries are not always repeated. Where two headings read alike, the source gives them in different places. Blank lines part the entries; values can stand above or below the molecule they belong to. Bridge positions count the residues as written; N and C are the ends. Ends that are not written are not given here. Glu‑DTPA‑Gd = N-terminal Glu-DTPA-Gd chelate (gadolinium DTPA complex on glutamic acid)

Tests used:
[1] = In vivo heart uptake of collagen binding agent and non-binding analog; conditions: mouse, 10 μmol/kg tail vein, 15 minutes post-injection, N=4
[2] = system: perfused Langendorff rat heart; experiment: Equilibrium binding to perfused Langendorff rat heart; conditions: 10 minutes
Protocol: (§1) After deep anesthesia with pentobarbital (80 mg/kg ip), the chest cavity of a male Sprague Dawley rat (300 g) was opened, retracted and the heart was removed immediately and placed in an ice-cold normal Krebs-Henseleit (K-H) solution (NaCl, 118 mM; KCl, 4.7 mM; CaCl2, 2.5 mM; MgSO4, 1.2 mM; KH2PO4, 1.2 mM; NaHCO3, 25 mM; glucose, 5.5 mM). A K-H buffer filled 20 Gauge needle was inserted into the apex of the heart penetrating into the bottom of the chamber. This was attached to a pressure transducer used to record and monitor heart function. Perfusion pressure (˜60 mmHg) was monitored using a second transducer. The heart was perfused at a constant flow rate of 10-12 mL/min with 37° C. Krebs-Henseleit buffer saturated with a mixture of 95% O2 and 5% CO2 gas. The heart was paced at 300 beats/min.
Two peptide test articles, a high collagen binding peptide (SEQ ID NO: 144) and a low collagen binding peptide (SEQ ID NO: 173), are compared to GdDTPA. The appropriate test article was added to the K-H buffer solution to a total concentration of either 3 or 30 μM. Also added to the K-H buffer was a radiotracer analog of each peptide or GdDTPA. For the peptides, the radiotracer was an aliquot of the appropriate 1-125 labeled peptide derivative (see Example 5 for protocol). For GdDTPA, the tracer added was Tc-99m labeled DTPA. The amount of radioactivity added to the buffer solution was 1-5 μCi.
The heart was perfused for a period of 10 minutes and the perfusion solution was recycled through the heart. The total volume of K-H buffer used was 50-60 mL. After 10 min, the heart was removed from the apparatus and any connective tissue was removed. The heart was opened, fluid in the chambers drained, and the interior blotted dry with filter paper. The heart was then weighed and the radioactivity in the heart measured with a Packard Cobra 5003 Gamma Scintillation counter. An aliquot of the K-H buffer was also weighed and counted. Studies were performed at least in duplicate.
The dual peptide gadolinium tetramer (Compound ID 803) was compared to GdDTPA. Compound ID 803 and GdDTPA were added to the K-H buffer solution to a total concentration of 3 μM. Also added to the K-H buffer was a radiotracer analog of Compound ID 803 or GdDTPA. For Compound ID 803, the radiotracer was an aliquot of the In-111 labeled compound. For GdDTPA, the tracer added was Tc-99m labeled DTPA. The amount of radioactivity added to the buffer solution was 1-5 μCi.

[3] = system: perfused Langendorff rat heart; experiment: Washout kinetics from perfused Langendorff rat heart; conditions: perfusion with buffer for 10 minutes
Protocol: as §1
A Langendorff rat heart preparation was perfused with K-H buffer at a rate of 10-12 mL/min. A one mL solution containing SEQ ID NO: 144 (300 μM), radiolabeled (I-125) SEQ ID NO: 144 (1-6 μCi), GdDTPA (300 μM), and radiolabeled (Tc-99m) DTPA (5-8 μCi) was infused into the heart at a rate of 1 mL/min. After the infusion was finished, the heart was either removed or perfusion was allowed to continue for an additional 10 minutes and then the heart was removed. The perfusion buffer was not recirculated through the heart. After removal of any connective tissue, the heart was opened, fluid in the chambers drained, and the interior blotted dry with filter paper. The heart was then weighed and the radioactivity in the heart measured with a Packard Cobra 5003 Gamma Scintillation counter. […] An aliquot of the K-H buffer was also weighed and counted. Concentration estimates were decay corrected. Studies were performed at least in duplicate.
A Langendorff rat heart preparation was perfused with K-H buffer at a rate of 10-12 mL/min. […] The heart was then weighed and the radioactivity in the heart measured with a Packard Cobra 5003 Gamma Scintillation counter. […] An aliquot of the K-H buffer was also weighed and counted. […]

[4] = rat, in vivo
rat type I collagen = target: T1, rat type I collagen (Rattus norvegicus, UniProt P02454+P02466); experiment: MR phantom imaging at 4.7 T of rat collagen gel samples; conditions: samples 4 and 8 (centrifuged)
T1 construct: Rat collagen (acid soluble, type I, rat tail); purchased Upstate USA, Inc 08-115; host or cells: rat tail (tissue extract)
T1 sequence (P02454 152-1207 limits assumed): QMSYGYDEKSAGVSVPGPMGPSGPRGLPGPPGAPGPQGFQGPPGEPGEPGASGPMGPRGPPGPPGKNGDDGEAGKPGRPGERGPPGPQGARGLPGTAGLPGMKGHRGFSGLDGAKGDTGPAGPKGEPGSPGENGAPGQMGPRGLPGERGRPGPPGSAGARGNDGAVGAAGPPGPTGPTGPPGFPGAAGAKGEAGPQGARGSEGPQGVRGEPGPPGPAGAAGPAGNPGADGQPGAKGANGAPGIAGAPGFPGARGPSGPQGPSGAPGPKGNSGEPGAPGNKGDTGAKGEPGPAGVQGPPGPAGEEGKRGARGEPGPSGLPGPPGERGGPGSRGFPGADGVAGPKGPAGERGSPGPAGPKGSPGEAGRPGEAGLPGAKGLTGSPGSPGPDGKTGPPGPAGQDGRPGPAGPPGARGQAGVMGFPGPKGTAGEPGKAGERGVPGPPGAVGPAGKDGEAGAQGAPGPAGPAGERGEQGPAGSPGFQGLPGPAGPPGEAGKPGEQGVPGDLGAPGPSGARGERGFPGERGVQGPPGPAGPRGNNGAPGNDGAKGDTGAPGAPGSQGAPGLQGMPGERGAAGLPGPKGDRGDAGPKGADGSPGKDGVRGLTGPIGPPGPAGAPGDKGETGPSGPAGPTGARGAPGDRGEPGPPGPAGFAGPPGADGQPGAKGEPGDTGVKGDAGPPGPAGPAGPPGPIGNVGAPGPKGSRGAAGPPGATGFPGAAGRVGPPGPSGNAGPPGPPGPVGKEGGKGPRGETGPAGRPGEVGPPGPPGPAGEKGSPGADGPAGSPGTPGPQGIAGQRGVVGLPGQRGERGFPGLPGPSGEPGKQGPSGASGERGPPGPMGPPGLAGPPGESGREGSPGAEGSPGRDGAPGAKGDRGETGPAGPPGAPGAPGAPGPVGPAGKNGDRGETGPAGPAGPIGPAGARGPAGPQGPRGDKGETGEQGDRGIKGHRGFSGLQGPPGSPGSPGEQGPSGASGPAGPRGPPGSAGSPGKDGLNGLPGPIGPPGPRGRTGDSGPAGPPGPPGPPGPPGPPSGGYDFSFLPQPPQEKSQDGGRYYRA
T1 sequence (P02466 86-1125 limits assumed): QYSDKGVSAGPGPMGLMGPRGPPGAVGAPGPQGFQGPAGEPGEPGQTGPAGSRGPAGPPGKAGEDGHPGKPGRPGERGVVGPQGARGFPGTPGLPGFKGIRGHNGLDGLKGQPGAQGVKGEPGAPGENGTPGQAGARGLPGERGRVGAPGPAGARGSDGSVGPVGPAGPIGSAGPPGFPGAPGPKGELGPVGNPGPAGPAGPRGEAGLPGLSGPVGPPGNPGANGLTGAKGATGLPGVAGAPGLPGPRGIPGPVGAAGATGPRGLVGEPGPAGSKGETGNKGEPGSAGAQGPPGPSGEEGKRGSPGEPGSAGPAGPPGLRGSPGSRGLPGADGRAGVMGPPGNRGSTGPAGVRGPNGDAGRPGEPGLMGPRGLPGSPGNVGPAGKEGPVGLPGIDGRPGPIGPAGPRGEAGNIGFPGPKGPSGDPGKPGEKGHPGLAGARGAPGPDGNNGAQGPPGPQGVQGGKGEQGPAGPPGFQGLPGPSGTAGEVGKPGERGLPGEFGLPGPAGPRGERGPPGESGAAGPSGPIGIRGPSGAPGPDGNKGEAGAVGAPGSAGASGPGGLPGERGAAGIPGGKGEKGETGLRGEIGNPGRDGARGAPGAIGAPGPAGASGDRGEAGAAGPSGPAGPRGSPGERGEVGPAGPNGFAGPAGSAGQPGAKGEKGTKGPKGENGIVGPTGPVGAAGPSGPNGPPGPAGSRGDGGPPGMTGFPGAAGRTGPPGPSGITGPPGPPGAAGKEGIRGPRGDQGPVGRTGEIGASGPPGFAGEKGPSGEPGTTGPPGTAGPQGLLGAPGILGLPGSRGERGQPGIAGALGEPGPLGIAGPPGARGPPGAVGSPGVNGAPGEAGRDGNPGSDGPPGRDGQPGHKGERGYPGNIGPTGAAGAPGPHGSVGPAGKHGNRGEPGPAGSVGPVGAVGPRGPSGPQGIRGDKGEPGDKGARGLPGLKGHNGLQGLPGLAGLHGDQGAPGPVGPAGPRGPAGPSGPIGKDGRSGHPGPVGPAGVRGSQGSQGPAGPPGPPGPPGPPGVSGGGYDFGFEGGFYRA
Protocol: Samples: • 1. […] Sample prepared as sample 2, but centrifuged to separate insoluble rat collagen gel • 5. Sample prepared as sample 3, but centrifuged to separate insoluble human collagen gel • 6. 27 μM GdDTPA solution in PBS, pH 7.4 • 7. 27 μM GdDTPA in a solution of 5.0 μM rat type I collagen in 10 mM phosphate buffer, pH 5 incubated at 37° C. overnight to form a gel • 8. Sample prepared as in sample 7, but centrifuged to separate insoluble rat collagen gel • 9. Homogeneous gel of 5 μM rat collagen • 10. Homogeneous gel of 7.5 μM human collagen
Samples for imaging were placed in glass tubes that were in turn placed in tubes containing water. Images were acquired at 4.7 T on a Bruker Biospec Imager using a Multi-Slice Multi-Echo Method with variable Relaxation Delay (MSMEVTR) experiment. The spin echo time and the relaxation delay were set to TE=11.2 ms and TR=500 ms, respectively with a flip angle of 30°. Images were acquired of sample 2, sample 4, sample 7, and sample 8. […] Sample 7 and 8 show uniform signal intensity.

[5] = Biodistribution analysis in rats (heart and blood radioactivity); conditions: rat
myocardium = experiment: Myocardial MR imaging in mouse; assay type: in vivo, C57BL/6 mouse; conditions: 25 μmol/kg i.v. bolus, 4.7-T
infarcted myocardium = experiment: Myocardial infarction MR imaging in mouse, 7 days post MI; assay type: in vivo, C57BL/6 mouse; conditions: 25 μmol/kg i.v. bolus
[6] = Heart uptake in mice, gadolinium by ICP-MS; conditions: mouse, mesentery vein injection

Molecule: CC(C)C[C@H](NC(=O)[C@@H]1CSSC[C@@H](NC(=O)[C@H](Cc2c[nH]cn2)NC(=O)[C@H](Cc2c[nH]c3ccccc23)NC(=O)[C@H](CCCCNC(=O)CNC(=S)Nc2ccc(C[C@@H](CN(CCN(CC(=O)O)CC(=O)O)CC(=O)O)N(CC(=O)O)CC(=O)O)cc2)NC(=O)CNC(=S)Nc2ccc(C[C@@H](CN(CCN(CC(=O)O)CC(=O)O)CC(=O)O)N(CC(=O)O)CC(=O)O)cc2)C(=O)N[C@@H]([C@@H](C)O)C(=O)N[C@@H]([C@@H](C)O)C(=O)N[C@@H](CCCCNC(=S)Nc2ccc(C[C@@H](CN(CCN(CC(=O)O)CC(=O)O)CC(=O)O)N(CC(=O)O)CC(=O)O)cc2)C(=O)N[C@@H](Cc2ccccc2)C(=O)N2CCC[C@H]2C(=O)N[C@@H](Cc2c[nH]cn2)C(=O)N[C@@H](Cc2c[nH]cn2)C(=O)N[C@@H](Cc2ccc(O)cc2)C(=O)N1)C(=O)N[C@@H](Cc1ccc(O)cc1)C(=O)N[C@@H](Cc1ccc(-c2ccccc2)cc1)C(N)=O [Compound ID 1019]
Gadolinium concentration in the blood [1]: 13.3±0.3 nmol Gd/g tissue | Gadolinium concentration in the heart [1]: 14.7±1.0 nmol Gd/g tissue

heart uptake relative to GdDTPA [2]: about 10 times
Molecule: Q W T C S G D A Y T W H C N Y E (GQWTCSGDAYTWHCNYE; disulfide 5-14 (inferred); not fully specified (C-terminus)) [SEQ ID NO. 144]
amount remaining in heart at 10 minutes after infusion relative to 0 minutes post infusion [3]: 68% | Heart:Blood [4]: 0.38

Heart:Blood ([5]; 1 min post injection): 0.26 | Heart:Blood ([5]; 5 min post injection): 0.26
Molecule: O=C([O-])CN(CCN(CC(=O)[O-])CC(=O)O)CCN(CC(=O)[O-])CC(=O)O.[Gd+3] [GdDTPA, gadolinium diethylenetriaminepentaacetate, reference compound]
amount remaining in heart at 10 minutes after infusion relative to 0 minutes post infusion [3]: 0.5% and 2.2% | MR signal of centrifuged rat collagen gel pellet versus supernatant (rat type I collagen): no increased concentration of GdDTPA in the gel relative to the supernatant

Molecule: Glu-DTPA-Gd-G.Q.W.H.C.T.T.R.F.P.H.H.Y.C.L.Y.G-PEG-H ({Glu‑DTPA‑Gd}-GQWHCTTRFPHHYCLYG; disulfide 5-14 (inferred); not fully specified (C-terminus)) [SEQ ID NO. 186]
MR signal of centrifuged rat collagen gel pellet versus supernatant (rat type I collagen): the pellet for sample 4 was much brighter than the supernatant

Molecule: CC(C)C[C@H](NC(=O)[C@@H]1CSSC[C@H](NC(=O)[C@H](Cc2c[nH]cn2)NC(=O)[C@H](Cc2c[nH]c3ccccc23)NC(=O)[C@H](CCCCNC(=O)CNC(=S)Nc2ccc(C[C@@H](CN(CCN(CC(=O)O)CC(=O)O)CC(=O)O)N(CC(=O)O)CC(=O)O)cc2)NC(=O)CNC(=S)Nc2ccc(C[C@@H](CN(CCN(CC(=O)O)CC(=O)O)CC(=O)O)N(CC(=O)O)CC(=O)O)cc2)C(=O)N[C@@H]([C@@H](C)O)C(=O)N[C@@H]([C@@H](C)O)C(=O)N[C@@H](CCCCNC(=S)Nc2ccc(C[C@@H](CN(CCN(CC(=O)O)CC(=O)O)CC(=O)O)N(CC(=O)O)CC(=O)O)cc2)C(=O)N[C@@H](Cc2ccccc2)C(=O)N2CCC[C@H]2C(=O)N[C@@H](Cc2c[nH]cn2)C(=O)N[C@@H](Cc2c[nH]cn2)C(=O)N[C@@H](Cc2ccc(O)cc2)C(=O)N1)C(=O)N[C@@H](Cc1ccc(O)cc1)C(=O)N[C@@H](Cc1ccc(-c2ccccc2)cc1)C(N)=O [Compound ID 800]
persistence of positive enhancement of the myocardium (myocardium): at least 1 hour | MR enhancement of infarcted regions (infarcted myocardium): hyperenhancement of infarcted zones | persistence of enhancement (infarcted myocardium): at least 1 hour | retention of gadolinium in the heart [6]: ≥ 30 min
